Reference: US20140206559A1, “ASSAY FOR […] OF TUMOR CELLS” (PRESIDENT AND FELLOWS OF HARVARD COLLEGE, priority 2011, published 2014)

Tested on: invasive cells (PC-3 and DU-154)
Assay: three-dimensional in vitro invasion assay (CiGiP, paper-Matrigel layers, calcein stain)
Format: cell-based
Conditions: PC-3 and DU-154 prostate cancer cells in stacked paper-Matrigel layers; 1-5 days culture of stacked layers; inhibitor of actin-based motility present
Protocol: The following invasive potential of the cell lines were assessed using the 3D in vitro assay as disclosed herein: Breast cancer cells; triple negative highly invasive cell line MDA-MB-231. Prostate cancer cells: highly invasive PC-3 and DU-154 isolate from bone and brain metastases, weakly invasive LNCaP and CWR-22 lines. Control cells included normal prostate epithelial cells (RWPE-1) and fibroblasts (HIN 3T3) as negative controls.
Permeation of the suspension of cells in Matrigel into paper yielded thin (200 μm) layers of Matrigel with cells trapped within [Derda et al, PNAS 2009; Derda et al, PLoS submitted]. […] The inventors also assessed other combinations of different numbers of seed-substrates and different numbers of receiving-substrates.
After additional 1-5 days of culture of the 3-D assay of stacked layers, the layers were separated by peeling apart and the amount of cells (e.g., the number, density or quantity) of cells in one or more receiving layer was measured, and optionally the amount of the amount of cells (e.g., the number, density or quantity) of cells in the seed-substrate layer. […]
To measure the quantity of cells in each layer, the layers were incubated in solution of calcein which stains viable cells and the layers were imaged using fluorescent scanner at 100 micron resolution. […]

C=C1[C@@H](C)[C@H]2[C@H](Cc3ccccc3)NC(=O)[C@]23[C@H](OC(C)=O)/C=C/[C@@](C)(O)C(=O)[C@@H](C)C/C=C/[C@H]3[C@@H]1O [cytoclasin D]
invasion of the upper "receiver-substrate" layer by invasive cells: blocked
